Here are results for nine compounds from paper PMC6117704, “Novel Natural Angiotensin Converting Enzyme (ACE)-Inhibitory Peptides Derived from Sea Cucumber-Modified Hydrolysates by Adding Exogenous Proline and a Study of Their Structure–Activity Relationship” (Marine Drugs, 2018).

One assay has as its target T1, rabbit-lung ACE (Oryctolagus cuniculus, UniProt P12822).
T1 construct: rabbit-lung ACE and Sephadex G-15 were purchased from Sigma Chemical Ltd; purchased Sigma Chemical Ltd (St. Louis, MO, USA); host or cells: rabbit lung tissue
T1 sequence (P12822 34-1310): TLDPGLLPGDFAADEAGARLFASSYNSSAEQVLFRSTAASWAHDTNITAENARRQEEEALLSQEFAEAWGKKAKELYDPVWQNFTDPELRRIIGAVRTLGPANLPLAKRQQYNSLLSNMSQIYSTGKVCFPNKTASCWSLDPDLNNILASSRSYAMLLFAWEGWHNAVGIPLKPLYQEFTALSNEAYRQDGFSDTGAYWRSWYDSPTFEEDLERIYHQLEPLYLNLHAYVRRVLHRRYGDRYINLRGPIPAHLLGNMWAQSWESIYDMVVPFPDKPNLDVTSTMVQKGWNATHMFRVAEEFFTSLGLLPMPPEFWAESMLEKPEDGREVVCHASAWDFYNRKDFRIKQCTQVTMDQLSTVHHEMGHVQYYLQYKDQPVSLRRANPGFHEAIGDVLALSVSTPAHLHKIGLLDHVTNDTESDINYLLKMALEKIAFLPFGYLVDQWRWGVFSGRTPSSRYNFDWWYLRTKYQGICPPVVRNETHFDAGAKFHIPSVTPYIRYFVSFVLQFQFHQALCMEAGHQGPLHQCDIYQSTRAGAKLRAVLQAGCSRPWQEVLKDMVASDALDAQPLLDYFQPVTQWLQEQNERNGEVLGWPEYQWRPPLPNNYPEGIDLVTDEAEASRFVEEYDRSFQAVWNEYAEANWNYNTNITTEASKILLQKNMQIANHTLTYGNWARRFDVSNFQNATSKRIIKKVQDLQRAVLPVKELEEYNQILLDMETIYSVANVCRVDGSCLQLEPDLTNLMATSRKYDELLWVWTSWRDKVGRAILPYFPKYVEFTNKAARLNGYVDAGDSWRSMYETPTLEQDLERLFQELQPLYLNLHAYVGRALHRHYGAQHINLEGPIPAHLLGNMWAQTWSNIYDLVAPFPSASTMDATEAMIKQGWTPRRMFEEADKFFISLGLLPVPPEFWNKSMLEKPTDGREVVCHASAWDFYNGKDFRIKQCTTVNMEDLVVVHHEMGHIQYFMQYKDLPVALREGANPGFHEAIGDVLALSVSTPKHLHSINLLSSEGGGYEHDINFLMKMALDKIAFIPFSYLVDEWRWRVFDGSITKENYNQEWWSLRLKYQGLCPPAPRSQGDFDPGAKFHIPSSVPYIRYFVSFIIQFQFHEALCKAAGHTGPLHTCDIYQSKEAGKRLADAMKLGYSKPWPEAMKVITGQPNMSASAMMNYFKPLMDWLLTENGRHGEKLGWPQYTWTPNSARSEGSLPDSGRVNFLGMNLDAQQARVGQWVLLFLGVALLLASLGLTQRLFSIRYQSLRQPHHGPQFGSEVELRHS
The experiment in a line: ACE-inhibitory activity of synthetic peptides. In kind it is biochemical. The settings on record: synthesized peptides; HHL substrate (8.3 mM Hip-His-Leu in 50 mM sodium borate, 0.5 M NaCl, pH 8.3), ACE 25 mU/mL, pre-incubation 37 °C 10 min, 60 min, UV 228 nm; mean ± SD (n = 3). As for the experimental part:
Sea cucumber (Acaudina molpadioidea) was purchased from a local market (Qingdao, China) and its water content was determined to be 12.65% per 20 g on average. Hippuryl histidyl leucine (HHL), rabbit-lung ACE and Sephadex G-15 were purchased from Sigma Chemical Ltd (St. Louis, MO, USA). Papain (from papaya) and trypsin (from bovine sources) were purchased from Nanning Pangbo Biological Engineering Ltd (Nanning, China). O-Pthaldialdehyde (OPA) was purchased from Beijing Soularbio Technology Ltd. (Beijing, China). Proline (PubChem CID 145742), valine (PubChem CID 6287), tyrosine (PubChem CID 6057), tryptophan (PubChem CID 6305), leucine (PubChem CID 6106) and phenylalanine (PubChem CID 6140) were purchased from Sinopharm Chemical Reagent Ltd. (Shanghai, China). All other chemicals were obtained from local commercial sources and were of the highest purity available.
The ACE-inhibitory activity of the hydrolysates was measured according to a previously reported protocol with slight modifications. Briefly, a sample solution with 40 μL of ACE solution (25 mU/mL) was pre-incubated at 37 °C for 10 min. After this, the mixture was incubated with 50 μL of the substrate (8.3 mM Hip-His-Leu in 50 mM sodium borate buffer containing 0.5 M NaCl at pH of 8.3) for 60 min at the same temperature. The reaction was terminated by the addition of 1.0 M HCl (200 μL). The absorbance of hippuric acid in the incubated solution was determined at 228 nm using a UV-spectrophotometer (UV-2550, Shimadzu, Kyoto, Japan). The IC50 value was defined as the concentration of inhibitor that was needed to inhibit 50% of the ACE activity.
The molecular weights of peptides in the filtered hydrolysates were analyzed by MALDI-TOF (TOF 4800, Micromass Company, Manchester, UK). The amino acid sequences were determined in the positive ion mode by de novo sequencing. Subsequently, the peptides were synthesized using the solid phase method and purified by HPLC (ChinaPeptides Co. Ltd., Shanghai, China).

Another assay has as its system ACE. Further details: method as in 8 sources, ref [4]; PMID 29426427; doi:10.1016/j.foodchem.2018.01.047; 4. Sangsawad P. Roytrakul S. Choowongkomon K. Kitts D.D. Chen X.M. Meng G. Lichan E. Yongsawatdigul J. Transepithelial transport across Caco-2 cell monolayers of angiotensin converting enzyme (ACE) in ||| ref [20] = [20]; PMID 29426427; doi:10.1016/j.jff.2016.12.005; 20. Sangsawad P. Roytrakul S. Yongsawatdigul J. Angiotensin converting enzyme (ACE) inhibitory peptides derived from the simulated in vitro gastrointestinal digestion of cooked chicken breast J. Funct ||| ref [21] = [21]; doi:10.1016/j.idairyj.2006.05.011; 21. Otte J. Shalaby S.M. Zakora M. Pripp A.H. El-Shabrawy S.A. Angiotensin-converting enzyme inhibitory activity of milk protein hydrolysates: Effect of substrate, enzyme and time of hydrolysis Int. D ||| ref [11] = [11]; doi:10.1080/10942912.2011.642048; 11. Sun H. Li T.J. Zhao X.H. ACE inhibition and enzymatic resistance in vitro of a casein hydrolysate subjected to plastein reaction in the presence of extrinsic proline and ethanol- or methanol-eater ||| ref [26] = [26]; PMID 24054237; doi:10.1016/j.foodchem.2013.07.067; 26. Ngo D.H. Ryu B. Kim S.K. Active peptides from skate ( Okamejei kenojei ) skin gelatin diminish angiotensin-I converting enzyme activity and intracellular free radical-mediated oxidation Food Chem. ||| ... The settings on record: cited from earlier work.

Read-outs that look alike come from different tables or passages of the source. Peptide text beside a SMILES is read from it.

What is called IC50 is the concentration that inhibits the measured activity by half. Compound `CC(C)C[C@H](NC(=O)[C@@H](N)CC(N)=O)C(=O)NCC(=O)O` [NLG] (H-Asn-Leu-Gly-OH) registered an IC50 against rabbit-lung ACE of 17.4 ± 0.89 µM.
For the compound `CC(C)[C@H](NC(=O)[C@@H](N)CC(N)=O)C(=O)N[C@@H](C)C(=O)O` [NVA] (H-Asn-Val-Ala-OH), it took 12.7 ± 1.5 µM to reach half-maximal inhibition at rabbit-lung ACE (IC50).
At rabbit-lung ACE, `CC(C)C[C@H](NC(=O)[C@H](CC(N)=O)NC(=O)[C@@H]1CCCN1)C(=O)NCC(=O)O` [PNLG] (H-PNLG-OH) returned an IC50 of 13.2 ± 0.39 µM.
`CC(C)[C@H](NC(=O)[C@H](CC(N)=O)NC(=O)[C@@H]1CCCN1)C(=O)N[C@@H](C)C(=O)O` [PNVA] (H-PNVA-OH): it took 8.18 ± 0.24 µM to reach half-maximal inhibition on rabbit-lung ACE (IC50).
AGPPGSDGQPGAK: the IC50 in the assay on ACE (ref [38]) is 420 ± 20 µM.
Regarding KPLL, the “ACE-inhibitory activity (in words)” value in the assay on ACE (ref [20]) is “high ACE-inhibitory activity”.
LGPLGHQ: the “ACE-inhibitory activity (in words)” value with ACE (ref [26]) is “high ACE-inhibitory activity”.
Turning to MVGSAPGVL, in the assay with ACE (ref [26]), the “ACE-inhibitory activity (in words)” value was “high ACE-inhibitory activity”.
On to VYPFPGPIPNSLPQNIPP, for which, in the assay on ACE (ref [21]), the “ACE-inhibitory activity (in words)” value was “high ACE-inhibitory activity”.
